Reference: US20240226302A1, “BIODEGRADABLE LIPIDS AND FORMULATIONS FOR INTRAMUSCULAR, IN VITRO, AND EX VIVO TRANSFECTION OF MRNA” (Massachusetts Institute of Technology, priority 2022, published 2024)

Experiments:
mice = test: Intramuscular injection of LNPs loaded with firefly luciferase mRNA, 0.25 mg/kg, luciferase expression; assay type: in vivo; conditions: for potency compared to MD-1 (luciferase expression): 0.25 mg/kg Fluc mRNA
Experimental: (§1) LNPs for in vitro studies and intramuscular injections were prepared by hand mixing. The lipid components were dissolved in ethanol and, separately, mRNA encoding for firefly luciferase (fLuc) was diluted into a solution of 10 mM citrate pH 3.0 at a concentration of […]. The two solutions were mixed in a 3:1 water:ethanol volume ratio by repeatedly pipetting up and down. For intravenous studies, nanoparticles were instead formed by mixing the ethanol and aqueous phases with a microfluidic chip as described previously.
The in vivo potency of the ionizable lipids was screened through intramuscular injection of LNPs loaded with mRNA encoding firefly luciferase protein. These LNPs were formulated with a molar composition of (35:16:46.5:2.5) using one of the synthesized ionizable lipids, DOPE as a helper lipid, cholesterol, and DMPE-PEG. Ionizable lipid AMG104 was chosen due to high in vitro mRNA transfection ability. mRNA-loaded LNPs were intramuscularly administered in mice at a dose of 0.25 mg/kg (5 μg) and expression of luciferase protein was monitored at 6 hours (0.25 day), and day 1, 2, 3, 5 and 7.
Additional lipids were synthesized varying length of the hydrophobic tail with or without one alkene or by varying the location of the internal alkene near or away from the ester linkage. The number of carbons on the amine headgroup was also varied (FIG. 4). […] The luciferase expression was monitored at 6 h, 24 h, and 48 h time points after intramuscular administration of Fluc mRNA dosed at 0.25 mg/kg formulated with various LNPs containing these lipids.

Jurkat cells = test: mRNA (luciferase) transfection of Jurkat cells by LNPs, Bright-Glo assay; assay type: cell-based, human; conditions: 150 ng mRNA
Experimental: as §1
Based on high transfection potency in Hela cells, some of the potent lipids were tested for mRNA delivery efficacy in Jurkat cells, an immortalized human T-cell line for potential CAR-T therapeutic applications. Jurkat cells were cultured in a RPMI-1640 medium with L-glutamine supplemented with 10% bovine serum and 1% penicillin-streptomycin. Jurkat cells were plated on a white, flat-bottom 96 well plate (Corning, Corning, NY) at a density of 100k cells/well and co-incubated dosed with 150 ng of mRNA. Luciferase expression in the cells was determined after 24 hours using a Bright-Glo assay (Promega, Madison, WI) and normalized to cell viability (Multi-tox, Promega).

HeLa cells = test: In vitro full factorial DOE formulation screening of LNPs, luciferase expression, Bright-Glo assay; assay type: cell-based
Experimental: as §1
HeLa cells were plated on a white, flat-bottom 96 well plate (Corning, Corning, NY) at a density of 15k cells/well and allowed to recover for 24 hrs. Each well was then dosed with 150 ng of mRNA, and, after 24 hrs., luciferase expression was determined using a Bright-Glo assay (Promega, Madison, WI). The first generation of ionizable lipids was screened in this manner and the results are shown as performance relative to a positive control MD-1^3 in a heatmap in FIG. 2.
For intravenous experiments, design of experiments (DOE) was used to systematically vary the ratios of each of the LNP components for lipid AMG104. First, an initial screening of each of the components was performed using a definitive screening design. This experimental design allows for identification of the LNP components which have the greatest effect on delivery potency. […]

ovalbumin = test: Vaccination against ovalbumin by intramuscular injection of Ova mRNA, antibody titers and Elispot; assay type: in vivo
Experimental: AMG1041 was tested for vaccination against ovalbumin.

[1] = Lipid clearance monitored by LC-MS after intramuscular injection; assay type: in vivo; conditions: BALB/C mice, LC-MS (FIG. 15A)
Experimental: AMG1041 lipid clearance was monitored by LC-MS after intramuscular injection to BALB/C mice at various time points. AMG1041 was cleared within 24 hours from the injection site in the muscle (FIG. 15A). As a comparison, SM-102 was detectable even after 40 hours (FIG. 15B).^5 https://www.ncbi.nlm.nih.gov/pmc/articles/PMC6383180/).

[2] = Intramuscular route screening with FLuc mRNA (0.1 μg), luciferase expression; assay type: in vivo; conditions: FLuc mRNA 0.1 μg (FIG. 12)
Experimental: In addition, the importance of the OH group was evaluated. The importance of the orientation of the ester and OH was also evaluated (FIG. 10). The additional tails were also used to synthesize AMG1058, AMG1059, and AMG1041OHD. From a screening experiment using 0.1 μg FLuc mRNA dose, it was determined that the ester's specific orientation and the OH groups' location are important for G41 potency and that minor alterations can dramatically decrease potency.
The potency of these lipids was tested in vivo via intramuscular administration. AMG1041OHD was not tested in vivo due to difficulty in formulating these particles. The FLuc mRNA (0.1 μg) intramuscular route screening data is shown in FIG. 12 for the AMG1041 derivative lipids.

[3] = comparison, FIG. 15B, reference 5 (Hassett et al.); cited from earlier work

Compound: CCCCCCCC/C=C\CCCCCCCC(=O)OCC(O)CN1CCCN(CC(O)COC(=O)CCCCCCC/C=C\CCCCCCCC)CCN(CC(O)COC(=O)CCCCCCC/C=C\CCCCCCCC)CCCN(CC(O)COC(=O)CCCCCCC/C=C\CCCCCCCC)CC1 (stereo not shown) [AMG104]
- luciferase protein expression in mice (mice; 0.25 mg/kg (5 μg) fLuc mRNA, LNP 35:16:46.5:2.5 ionizable lipid:DOPE:cholesterol:DMPE-PEG): high luciferase protein expression
- potency compared to MD-1 (luciferase expression) (mice): comparable to that of MD1
- transfection in jurkat cells as compared to MD-1 lipid (Jurkat cells; 24 hours (FIG. 3)): increased transfection
- mRNA transfection compared to commercially used lipofectamine positive controls (Jurkat cells; 24 hours, normalized to cell viability (FIG. 3)): higher mRNA transfection
- in vitro performance of formulation 2 relative to the original (control) formulation 1 (HeLa cells; AMG104 LNP formulation 2 (helper 35%, ionizable lipid 30%, cholesterol 32.5%, DMPE-PEG 2.5%, lipid:mRNA 10:1) vs formulation 1 (16/35/46.5)): ~8.2 ×
- in vitro transfection (HeLa cells; AMG104 using formulation 2): extremely potent in vitro transfection

Compound: CCCCCC/C=C\CCCC(=O)OCC(O)CN1CCCN(CC(O)COC(=O)CCC/C=C\CCCCCC)CCN(CC(O)COC(=O)CCC/C=C\CCCCCC)CCCN(CC(O)COC(=O)CCC/C=C\CCCCCC)CC1 (stereo not shown) [AMG1041]
- cellular response from Elispot assay as compared to SM-102 and MD-1 (ovalbumin; after day 28 (FIG. 14)): strong cellular response
- antibody titers, potency compared to SM-102 (ovalbumin; day 14, intramuscular, varying Ova mRNA doses (FIG. 14)): higher potency compared to SM-102
- luciferase expression, times higher (mice; 0.25 mg/kg Fluc mRNA (FIG. 5A), comparator not stated, MD-1 named in the same sentence): 2-3 times
- time to clearance from the injection site in the muscle [1]: ≤ 24 h

Compound: CCCC/C=C\CCCCCCCC(=O)OCC(O)CN1CCCN(CC(O)COC(=O)CCCCCCC/C=C\CCCC)CCN(CC(O)COC(=O)CCCCCCC/C=C\CCCC)CCCN(CC(O)COC(=O)CCCCCCC/C=C\CCCC)CC1 (stereo not shown) [AMG1042]
- potency compared to MD-1 (luciferase expression) (mice): nearly as potent as

Compound: CCCCCC/C=C\CCCCCCCC(=O)OCC(O)CN1CCCN(CC(O)COC(=O)CCCCCCC/C=C\CCCCCC)CCN(CC(O)COC(=O)CCCCCCC/C=C\CCCCCC)CCCN(CC(O)COC(=O)CCCCCCC/C=C\CCCCCC)CC1 (stereo not shown) [AMG1043]
- potency compared to MD-1 (luciferase expression) (mice): nearly as potent as

Compound: CCCCCC/C=C\CCCCCCCCCC(=O)OCC(O)CN1CCCN(CC(O)COC(=O)CCCCCCCCC/C=C\CCCCCC)CCN(CC(O)COC(=O)CCCCCCCCC/C=C\CCCCCC)CCCN(CC(O)COC(=O)CCCCCCCCC/C=C\CCCCCC)CC1 (stereo not shown) [AMG1044]
- potency compared to MD-1 (luciferase expression) (mice): nearly as potent as

Compound: CCCC/C=C\C/C=C\CCC(=O)OCC(O)CN1CCCN(CC(O)COC(=O)CC/C=C\C/C=C\CCCC)CCN(CC(O)COC(=O)CC/C=C\C/C=C\CCCC)CCCN(CC(O)COC(=O)CC/C=C\C/C=C\CCCC)CC1 (stereo not shown) [AMG1053]
- luciferase expression compared to control sample with MD-1 [2]: nearly as well as the control sample with MD-1

Compound: C/C=C\C/C=C\CCCCCC(=O)OCC(O)CN1CCCN(CC(O)COC(=O)CCCCC/C=C\C/C=C\C)CCN(CC(O)COC(=O)CCCCC/C=C\C/C=C\C)CCCN(CC(O)COC(=O)CCCCC/C=C\C/C=C\C)CC1 (stereo not shown) [AMG1056]
- luciferase expression compared to control sample with MD-1 [2]: performed similarly

Compound: CCCCCCCCCCCOC(=O)CCCCCN(CCO)CCCCCCCC(=O)OC(CCCCCCCC)CCCCCCCC [SM-102]
- time after which lipid was still detectable [3]: > 40 h
